For test [1] the following is noted: as reported in the literature; cited from earlier work.
The next test concerns p-Erk1/2. Type of test: cell-based, human.
Test [2] relates to human ES cells. As to the kind of experiment: Cell-penetrating ability of FITC-labeled peptides, confocal microscopy. Type of test: cell-based. To be noted: 24 h. Here is the method:
The human ES cells were treated with FITC-labeled P13 and M6 for 24 h, respectively, and the positions of the peptides were confirmed under a confocal microscope by immunostaining with nuclear dye combined with cytoplasmic membrane dye.
Immunostaining of human ES cells treated with the fluorescently labeled P13/M6: Human ES cells were cultured on a sterile cover slide, and a 12-well plate was coated with matrix gel at a concentration of 1 mg/ml for 1-2 h. After 24 h, the cells were washed with a DMEM-F12 culture medium, the E8 culture medium was used for replacement, and the cells were treated with the fluorescently labeled peptide for 24 h. Then, the cell membranes were stained by using the CellMask™ crimson plasma membrane (Thermo Fisher), and incubation was performed at 37° C. for 10 min. The staining solution was removed, 200 μL of 4.0% formaldehyde was added to the culture medium, and incubation was performed at 37° C. for 10 min. The culture medium was then removed. The cells were washed with 1×PBS three times and incubated with 10 μl of DAPI (a DNA staining agent) and a mounting medium for one minute, and the cover slide was mounted and sealed with nail polish to prevent drying. The samples were imaged with a Carl Zeiss confocal LSM710 microscope.

In the next test the test system is p-Smad2. It counts as cell-based, human.
The next test relates to OCT4, SOX2 and NANOG. Nature of the test: qPCR of self-renewal markers in human ES cells after five passages. Type of test: cell-based. Particulars: for expression levels of SOX2 and NANOG: one-way ANOVA ***p<0.001. From the text:
The self-renewal markers of the human ES cells were detected by using a quantitative polymerase chain reaction (qPCR) method.
The differential expressions of mRNAs of OCT4, SOX2 and NANOG were detected under the culture conditions of the above eight different culture media. Please refer to FIG. 2b for the detection results.
The self-renewal markers of the human ES cells were detected by using qPCR assay.
The differential expressions of mRNAs of OCT4, SOX2 and NANOG were detected under 12 different conditions. Please refer to FIG. 3b for the detection results (in the figure, the samples from left to right were E6, E6+P13, E6+M6, E6+TGFβ1, E6+TGFβ1+P13, E6+TGFβ1+M6, E6+FGF2, E6+FGF2+P13, E6+FGF2+M6, E8, E8+P13 and E8+M6).
Background: Quantitative PCR measures a nucleic acid by following its amplification.

Test [3] has as its system human ES cells. Nature of the test: Survival / proliferation of human ES cells (cell number by flow cytometry). It counts as cell-based. Particulars: E8 culture medium + peptide vs E8 culture medium; 24 h; P13 final concentration 200 μM; one-way ANOVA.
Test [4] has as its system human ES cells. As to the kind of experiment: Morphology (colony formation) of human ES cells after five serial passages. Type of test: cell-based. Here is the method:
Two groups were prepared, with four different culture media (E6, E6+TGFβ1, E6+FGF2 and E8) in each group, and the peptide P13 was added to the 4 culture media in group 1. A total of eight different culture media were prepared.
The human ES cells were serially passaged five times under eight different conditions to detect the differences of morphologies and pluripotency markers. Please refer to FIG. 2a for the morphological difference results observed after five passages.
On the basis of the preliminary results, three groups were prepared, with four different culture media (E6, E6+TGFβ1, E6+FGF2 and E8) in each group, the peptide M6 was added to the four culture media in group 1, respectively, and the P13 was added in another group as the control. In this way, a total of twelve different culture media were prepared.
The human ES cells were serially passaged five times under 12 different conditions to detect the differences of morphologies and pluripotency markers. Please refer to FIG. 3a for the morphological difference results obtained after five passages (in the figure, the samples from left to right were E6, E6+P13, E6+TGFβ1, E6+TGFβ1+P13, E6+FGF2, E6+FGF2+P13, E8 and E8+P13).

The mark [5] stands for this setting: E6 culture medium + peptide vs E6 control culture medium.

“Also recorded” adds a separate entry of the source. Like-named read-outs stand apart in the source and are kept apart here. Ends that are not written are not given here.

On to `N=C(N)NCCC[C@H](N)C(=O)O` [arginine], for which the “heparin-binding affinity relative to lysine” value in test [1] is listed as 2.5 times.

Regarding “FGF2: growth factor component of the E8 culture medium, 16.4 kDa”, the p-Erk1/2 expression result in the test on p-Erk1/2 (growth factor in E6 culture medium (FIG. 5d lanes 1-2)) is recorded as “up-regulated”.

On to “Gonearrestide (WCYKLPDRVSIKEKGRCN-NH2; cysteine pairing not given here) [P13]”, for which the “position of FITC-labeled peptide in human ES cells” value in the test on human ES cells [2] (E8, confocal microscope) was “bound to the plasma membranes”. For the same compound, in the test with human ES cells [2] (none found in cytoplasm), the “cell-penetrating peptide (CPP) property” value is “did not belong to the CPP family”. Moreover, the “expression level of p-Smad2” value in the test on p-Smad2 (setting [5]) is reported as “significantly up-regulated”; in the test on p-Smad2 (E6 with P13 and/or TGFβ1 vs E6+FGF2) it was “up-regulated”; with p-Smad2 (E8 with P13 vs E8), “up-regulated”. Further, in the test on OCT4, SOX2 and NANOG (E6 + peptide in comparison with other conditions, five passages), the “mRNA expression levels of OCT4, SOX2 and NANOG” value is listed as “low mRNA expression levels”. For the same compound, the “expression levels of SOX2 and NANOG” value in the test on OCT4, SOX2 and NANOG (E6+FGF2 + peptide vs E6) was “significantly up-regulated”; with OCT4, SOX2 and NANOG (E8 + peptide vs E6) it was “significantly up-regulated”. Besides, in the test with OCT4, SOX2 and NANOG (E6+TGFβ1 + peptide vs E6+TGFβ1), the “mRNA expression of OCT4, SOX2 and NANOG” value is reported as “up-regulated”. For the same compound, the “number of human ES cells that survived” value in the test with human ES cells [3] was “significantly higher”. The entries for the “expression level of p-Erk1/2” value in the test with p-Erk1/2 (setting [5]), with p-Erk1/2 (E6 with P13 and/or FGF2 vs E6+TGFβ1) and in the test with p-Erk1/2 (E8 with P13 vs E8) were “significantly up-regulated”, “up-regulated” and “not significantly up-regulated”, respectively. In the test on human ES cells [4] (E6+TGFβ + peptide, after five passages, vs E6+TGFβ), the “colony-forming morphology of human ES cells” value was “still maintained their colony morphologies; also recorded: maintained their colony-forming morphologies; also recorded: mixed state of colonies and dispersed cells”. Further, the “morphology of human ES cells” value is recorded as “no significant morphological differences; also recorded: no significant difference in their morphologies” in the test on human ES cells [4] (peptide added to E6+FGF2, five generations) and “no significant morphological differences; also recorded: no significant difference in their morphologies” with human ES cells [4] (peptide added to E8, five generations).

“TGFβ1: growth factor component of the E8 culture medium, 25.6 kDa homodimer linked by a disulfide bond”: the p-Smad2 expression entry in the test on p-Smad2 (E6 with 1.0 μmol LDN189193 treated with TGFβ or M6 vs E6 with 1.0 μmol LDN189193) and with p-Smad2 (growth factor in E6 culture medium (FIG. 5d lanes 3-4)) was “up-regulated” throughout. For the same compound, the p-Erk1/2 expression result in the test on p-Erk1/2 (E6 with M6 or TGFβ in presence of SB431542 (10 μmol) / A8301 (1.0 μmol)) is given as “not observed”.
